From PMC6792352, “Limited Chemical Structural Diversity Found to Modulate Thyroid Hormone Receptor in the Tox21 Chemical Library” (Environmental Health Perspectives, 2019)
Where a name gives a salt, the structure may show the parent alone.

test: in vitro; conditions: rat, gh3-tre-luc cells, AC50 (uM) modified / 1000

Row | SMILES | CC50 at 24 h
1 | CCCCCCCCN(C)C [N,N-Dimethyloctylamine] | > 90 µM
2 | OC[C@@H](O)[C@H](O)[C@@H](O)[C@@H](O)CO [L-Glucitol] | > 90 µM
3 | O=C1[C@H](CC[C@H](O)c2ccc(F)cc2)[C@@H](c2ccc(O)cc2)N1c1ccc(F)cc1 [Ezetimibe] | > 50 µM
4 | CCCC1C(CC)=CC(CC)=CN1c1ccccc1 (stereo not shown) [3,5-Diethyl-1-phenyl-2-propyl-1,2-dihydropyridine] | > 90 µM
5 | O=C(O)Cc1ccccc1Nc1c(Cl)cccc1Cl [Diclofenac sodium] | > 90 µM
6 | Nc1nc(/C(=C/CC(=O)O)C(=O)N[C@@H]2C(=O)N3C(C(=O)O)=CCS[C@H]23)cs1 [Ceftibuten] | > 50 µM
7 | Oc1ccc(C2(c3ccc(O)cc3)CC3CC2C2CCCC32)cc1 (stereo not shown) [4,4'-Octahydro-1H-4,7-methanoindene-5,5-diyldiphenol] | 27.4 µM
8 | Nc1cc(O)nc(N)n1 [2,4-Diamino-6-hydroxypyrimidine] | > 50 µM
9 | O=S(=O)(O)C(F)(F)F [Trifluoromethanesulfonic acid] | > 90 µM
10 | Nc1nc(-c2ccc([N+](=O)[O-])cc2)cs1 [2-Amino-4-(p-nitrophenyl)thiazole] | > 90 µM
11 | C=CCN1CCc2nc(N)sc2CC1 [Talipexole] | > 50 µM
12 | CN1CCN(c2ccccc2/C=C2\SCCN(c3ccc(Cl)c(Cl)c3)C2=O)CC1 [Elzasonan] | 8.33 µM
13 | CCCCOC(=O)CC#N [Butyl cyanoacetate] | > 100 µM
14 | Cc1cc(C)cc(N)c1 [3,5-Dimethylaniline] | > 90 µM
15 | Cc1ccc(O)c([C@H](CCN(C(C)C)C(C)C)c2ccccc2)c1 [Tolterodine] | 18.9 µM
16 | C[C@@H]1C[C@H]2[C@@H]3C[C@H](F)C4=CC(=O)C=C[C@]4(C)[C@@]3(F)[C@@H](O)C[C@]2(C)[C@@]1(O)C(=O)COC(=O)C(C)(C)C [Flumethasone pivalate] | > 50 µM
17 | Cc1cccc(Oc2ccccc2)c1 [1-Methyl-3-phenoxybenzene] | > 90 µM
18 | c1ccc(CNCCNCc2ccccc2)cc1 [N,N'-Dibenzylethane-1,2-diamine dihydrochloride] | > 50 µM
19 | CC(=O)OCCOCCOCCOC(C)=O [Triethylene glycol diacetate] | > 90 µM
20 | O=C(NCC(O)CO)c1c(I)c(C(=O)NCC(O)CO)c(I)c(N(CCO)C(=O)CO)c1I (stereo not shown) [Ioversol] | > 20 µM
21 | CC=C(Cl)Cl [1,1-Dichloropropene] | > 90 µM
22 | COCCOCCOCCOCCOCCO [2,5,8,11,14-Pentaoxahexadecan-16-ol] | > 90 µM
23 | CCCCCC=CCC1CC(=O)OC1=O (stereo not shown) [2-Octen-1-ylsuccinic anhydride] | > 90 µM
24 | CCCCOC(=O)C(C)O (stereo not shown) [Butyl lactate] | > 90 µM
25 | N=C(N)NCC1COC2(CCCCC2)O1 (stereo not shown) [Guanadrel sulfate] | > 20 µM

Row | SMILES | CC50 at 24 h
26 | Nc1cc(C(=O)O)c(O)c(S(=O)(=O)O)c1 [5-Amino-3-sulfosalicylic acid] | > 90 µM
27 | C=CC(=O)OCCCCCCCC [Octyl prop-2-enoate] | > 90 µM
28 | C[C@]12CCC(=O)C=C1CC[C@@H]1[C@@H]2C(=O)C[C@@]2(C)[C@H]1CC[C@]2(O)C(=O)CO [Cortisone] | > 90 µM
29 | O=P(O)(O)CCCl [Ethephon] | > 90 µM
30 | CN1C[C@H](C(=O)N[C@]2(C)O[C@@]3(O)[C@@H]4CCCN4C(=O)[C@H](Cc4ccccc4)N3C2=O)C[C@@H]2c3cccc4[nH]cc(c34)C[C@H]21 [Dihydroergotamine] | 19.3 µM
31 | O=C(O)CCN(C1(C(=O)NO)CCCC1)S(=O)(=O)c1ccc(Oc2ccc(F)cc2)cc1 [CP-471358] | > 90 µM
32 | COC(=O)C(C)Oc1ccc(Oc2ncc(C(F)(F)F)cc2Cl)cc1 (stereo not shown) [Haloxyfop-methyl] | > 90 µM
33 | Cc1ccc(N/N=c2\c(=O)cc/c(=N/Nc3ccc(S(=O)(=O)O)cc3)c2=O)c(C)c1 [C.I. Acid Orange 24, monosodium salt] | 59.4 µM
34 | COc1cc2c(cc1OC)[C@H]1CC(=O)[C@H](CC(C)C)CN1CC2 (racemic) [Tetrabenazine] | > 50 µM
35 | C[C@@H]1CCC[C@H](C)N1 [cis-Nanophine hydrochloride] | > 20 µM
36 | N=C(N)n1cccn1 [Praxadine hydrochloride] | > 50 µM
37 | Oc1cccc(O)c1 [Resorcinol] | > 90 µM
38 | CCCc1ccc(OC)cc1 [4-Propylanisole] | > 90 µM
39 | OCCN(CCO)c1nc(N2CCCCC2)c2nc(N(CCO)CCO)nc(N3CCCCC3)c2n1 [Dipyridamole] | > 50 µM
40 | O=[N+]([O-])c1c(Cl)c(Cl)c(Cl)c(Cl)c1Cl [Pentachloronitrobenzene] | > 90 µM
41 | CC(C)CCCCCCCCCCCCCCC(=O)O [Isooctadecanoic acid] | > 90 µM
42 | CC1(O)CCC(C(C)(C)O)CC1 (stereo not shown) [Terpin] | > 50 µM
43 | O=C(O)c1ccc(S(=O)(=O)O)cc1C(=O)O [4-Sulfophthalic acid] | > 90 µM
44 | On1nnc2ccccc21 [1-Hydroxybenzotriazole] | > 90 µM
45 | CC1(C)S[C@@H]2[C@H](NC(=O)[C@H](N)c3ccccc3)C(=O)N2[C@H]1C(=O)OCOC(=O)[C@@H]1N2C(=O)C[C@H]2S(=O)(=O)C1(C)C [Sultamicillin tosylate] | > 50 µM
46 | C1CCN(CN2CCCCC2)CC1 [Dipiperidinomethane] | > 90 µM
47 | CN(C)C(=O)NC1(c2ccccc2)CCN(CC[C@@]2(c3ccc(F)c(F)c3)CN(C(=O)c3ccccc3)CCO2)CC1 [SR144190] | 55.6 µM
48 | NS(=O)(=O)c1cc2c(cc1Cl)NC(Cc1ccccc1)NS2(=O)=O (stereo not shown) [Benzylhydrochlorothiazide] | > 50 µM
49 | O=C1CCC(c2ccccc2)(C2CCN(Cc3ccccc3)CC2)C(=O)N1 (stereo not shown) [Benzetimide] | > 50 µM
50 | CCN(CCO)CCn1c(Cc2ccccc2)nc2c1c(=O)n(C)c(=O)n2C [Bamifylline Hydrochloride] | > 50 µM

Row | SMILES | CC50 at 24 h
51 | Cc1cnc(C)c(C)n1 [2,3,5-Trimethylpyrazine] | > 100 µM
52 | Cc1c(Cl)cccc1Nc1ccccc1C(=O)O [Tolfenamic acid] | > 50 µM
53 | CC(=O)CCc1ccc(OC(C)=O)cc1 [4-(4-(Acetyloxy)phenyl)-2-butanone] | > 90 µM
54 | COc1cc(NCCCC(C)N)c2ncccc2c1 (stereo not shown) [Quinocide] | 15.1 µM
55 | CCCCN=C=O [Butyl isocyanate] | > 90 µM
56 | C=CCCC(=O)/C=C/C1C(C)=CCCC1(C)C (stereo not shown) [Allyl Ionone] | 80.7 µM
57 | CN1CCN(C(c2ccccc2)c2ccc(Cl)cc2)CC1 (stereo not shown) [Chlorcyclizine hydrochloride] | 4.39 µM
58 | CCCCCCCCCCCCCCCC[N+](C)(C)CCN(Cc1ccc(OC)cc1)c1ncccn1 [Thonzonium bromide] | 14.6 µM
59 | CCC(C(=O)OCCN(CC)CC)c1ccccc1 (stereo not shown) [Butetamate] | > 50 µM
60 | O=C(Nc1cccc([N+](=O)[O-])c1)c1cc2ccccc2cc1O [3-Hydroxy-N-(3-nitrophenyl)naphthalene-2-carboxamide] | 1.77 µM
61 | CC(C)(C)C(=O)Oc1ccc(S(=O)(=O)Nc2ccccc2C(=O)NCC(=O)O)cc1 [Sivelestat sodium tetrahydrate] | > 50 µM
62 | COc1cc(C=O)ccc1O [4-Hydroxy-3-methoxybenzaldehyde] | > 50 µM
63 | Cc1ccc(C(C)(C)C)cc1 [4-tert-Butyltoluene] | > 90 µM
64 | CC(=O)NC(Cc1ccccc1)C(=O)O (stereo not shown) [Afalanine] | > 50 µM
65 | CC(=O)CCC(C)C [5-Methyl-2-hexanone] | > 90 µM
66 | N#CCCN(CCO)CCO [3-[Bis(2-hydroxyethyl)amino]propanenitrile] | > 90 µM
67 | CCCCC(O)(Cn1cncn1)c1ccc(Cl)cc1Cl (stereo not shown) [Hexaconazole] | 54.6 µM
68 | Nc1ccc(Sc2ccc(N)cc2)cc1 [4,4'-Thiodianiline] | > 90 µM
69 | C[C@@H]1CCC[C@H](C)N1NC(=O)c1ccc(Cl)c(S(N)(=O)=O)c1 [Clopamide] | > 20 µM
70 | Cc1ccc(S(=O)(=O)NC2CCCCC2)cc1 [N-Cyclohexyl-4-methylbenzenesulfonamide] | > 90 µM
71 | COC1=C(OC)C(=O)C(CCCCCCCCCCO)=C(C)C1=O [Idebenone] | 35.2 µM
72 | Cc1cccc2sc(N)nc12 [2-Amino-4-methylbenzothiazole] | > 90 µM
73 | O=C(/C=C/c1ccc([N+](=O)[O-])cc1)c1ccccc1 [4-Nitrochalcone] | > 90 µM

same assay, conditions: rat, gh3-tre-luc cells, AC50 (uM) modified / 1000, Tox21_110001=Tox21_111928; viability, 1 nM T3 present, 24 h

Row | SMILES | CC50 at 24 h
74 | CNC(=O)Oc1ccccc1C(=O)Nc1ccccc1 [Anilamate] | > 50 µM

same assay, conditions: rat, gh3-tre-luc cells, AC50 (uM) modified / 1000, Tox21_110001=Tox21_113540; viability, 1 nM T3 present, 24 h

Row | SMILES | CC50 at 24 h
75 | Oc1ccc2c3c1O[C@H]1[C@@H](O)C=C[C@H]4[C@@H](C2)NCC[C@@]341 [Normorphine] | > 50 µM

same assay, conditions: rat, gh3-tre-luc cells, AC50 (uM) modified / 1000, Tox21_110001=Tox21_200200; viability, 1 nM T3 present, 24 h

Row | SMILES | CC50 at 24 h
76 | C=CCO [Allyl alcohol] | > 100 µM

same assay, conditions: rat, gh3-tre-luc cells, AC50 (uM) modified / 1000, Tox21_110001=Tox21_200357; viability, 1 nM T3 present, 24 h

Row | SMILES | CC50 at 24 h
77 | C=C(Cl)Cl [1,1-Dichloroethylene] | > 100 µM

same assay, conditions: rat, gh3-tre-luc cells, AC50 (uM) modified / 1000, Tox21_110001=Tox21_201112; viability, 1 nM T3 present, 24 h

Row | SMILES | CC50 at 24 h
78 | CC(Cl)(Cl)C(=O)O [Dalapon-sodium] | > 90 µM

same assay, conditions: rat, gh3-tre-luc cells, AC50 (uM) modified / 1000, Tox21_110001=Tox21_201427; viability, 1 nM T3 present, 24 h

Row | SMILES | CC50 at 24 h
79 | BrCCBr [1,2-Dibromoethane] | > 90 µM

same assay, conditions: rat, gh3-tre-luc cells, AC50 (uM) modified / 1000, Tox21_110001=Tox21_202465; viability, 1 nM T3 present, 24 h

Row | SMILES | CC50 at 24 h
80 | ClCC(Cl)Cl [1,1,2-Trichloroethane] | > 90 µM

same assay, conditions: rat, gh3-tre-luc cells, AC50 (uM) modified / 1000, Tox21_110001=Tox21_300997; viability, 1 nM T3 present, 24 h

Row | SMILES | CC50 at 24 h
81 | C/C(=N\NC(=O)Nc1cc(F)cc(F)c1)c1ncccc1C(=O)O [Diflufenzopyr-sodium] | > 90 µM

same assay, conditions: rat, gh3-tre-luc cells, AC50 (uM) modified / 1000, Tox21_110001=Tox21_303507; viability, 1 nM T3 present, 24 h

Row | SMILES | CC50 at 24 h
82 | C=CCO [Allyl alcohol] | > 90 µM
